Experiment in all cases: relative viability (nuclei count vs DMSO), 5 days (fraction); higher = more cells survive
Compound in experiment [1]: C1CC(C1)(C(=O)O)C(=O)O.[NH2-].[NH2-].[Pt+2] [Carboplatin] + NC(=O)Nc1cc(-c2cccc(F)c2)sc1C(=O)N[C@H]1CCCNC1 [AZD7762] (partner 0.2 µM)
The procedure, abridged:
(§1)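 Lung cancer cell lines were pin-tool dosed in 1536-well plates on the day after seeding, with either a lone drug or a fixed anchor-drug dose plus five library-drug doses (not always all listed) in √10 steps. Nuclei were counted on 4× images after 5 days. Relative viability is the ratio of treated-well to vehicle-well nuclei counts, with each value a median of duplicate plates.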

Compound in experiment [2]: C1CC(C1)(C(=O)O)C(=O)O.[NH2-].[NH2-].[Pt+2] [Carboplatin] + CS(=O)(=O)CCNCc1ccc(-c2ccc3ncnc(Nc4ccc(OCc5cccc(F)c5)c(Cl)c4)c3c2)o1 [Lapatinib] (partner 2 µM)
The procedure, abridged: as §1

Compound in experiment [3]: NS(=O)(=O)OC[C@@H]1C[C@@H](n2ccc3c(N[C@H]4CCc5ccccc54)ncnc32)C[C@@H]1O [MLN4924] + O=C(c1cc(Cc2n[nH]c(=O)c3ccccc23)ccc1F)N1CCN(C(=O)C2CC2)CC1 [Olaparib] (partner 8 µM)
The procedure, abridged:
as §1

Compound in experiment [4]: NS(=O)(=O)OC[C@@H]1C[C@@H](n2ccc3c(N[C@H]4CCc5ccccc54)ncnc32)C[C@@H]1O [MLN4924] + CC(=O)Nc1cccc(-n2c(=O)n(C3CC3)c(=O)c3c(Nc4ccc(I)cc4F)n(C)c(=O)c(C)c32)c1 [Trametinib] (partner 0.02 µM)
In a few lines:
as §1

Consider NCI-H322M, for which the relative viability came out at 0.598 in experiment [1] (first compound 0.08 µM); 0.548 in experiment [1] (first compound 0.253 µM); 0.553 in experiment [1] (first compound 0.8 µM); 0.547 in experiment [1] (first compound 2.53 µM); 0.428 in experiment [1] (first compound 8 µM); 0.653 in experiment [2] (first compound 0.08 µM). Moreover, the relative viability in experiment [2] (first compound 0.253 µM) was 0.639; in experiment [2] (first compound 0.8 µM), 0.55; in experiment [2] (first compound 2.53 µM), 0.561; in experiment [2] (first compound 8 µM), 0.609; in experiment [3] (first compound 0.04 µM) it was 0.708; in experiment [3] (first compound 0.1265 µM) it was 0.511. In addition, the relative viability in experiment [3] (first compound 0.4 µM) is 0.498; in experiment [3] (first compound 1.265 µM), 0.372; in experiment [3] (first compound 4 µM) it was 0.427; in experiment [4] (first compound 0.04 µM), 0.662; in experiment [4] (first compound 0.1265 µM) it was 0.735; in experiment [4] (first compound 0.4 µM) it was 1.03. Further, the relative viability in experiment [4] (first compound 1.265 µM) came out at 0.452; in experiment [4] (first compound 4 µM), 0.389.
As for NCI-H358, the relative viability was determined as 0.732 in experiment [1] (first compound 0.08 µM); 0.514 in experiment [1] (first compound 0.253 µM); 0.516 in experiment [1] (first compound 0.8 µM); 0.575 in experiment [1] (first compound 2.53 µM); 0.561 in experiment [1] (first compound 8 µM); 0.483 in experiment [2] (first compound 0.08 µM). Moreover, the relative viability amounted to 0.474 in experiment [2] (first compound 0.253 µM); 0.538 in experiment [2] (first compound 0.8 µM); 0.485 in experiment [2] (first compound 2.53 µM); 0.543 in experiment [2] (first compound 8 µM); 0.537 in experiment [3] (first compound 0.04 µM); 0.494 in experiment [3] (first compound 0.1265 µM). Moreover, the relative viability in experiment [3] (first compound 0.4 µM) was found to be 0.312; in experiment [3] (first compound 1.265 µM) it was 0.0861; in experiment [3] (first compound 4 µM) it was 0.105; in experiment [4] (first compound 0.04 µM), 0.167; in experiment [4] (first compound 0.1265 µM), 0.137; in experiment [4] (first compound 0.4 µM) it was 0.138. The relative viability is 0.115 in experiment [4] (first compound 1.265 µM) and 0.0882 in experiment [4] (first compound 4 µM).
On to NCI-H460, for which the relative viability in experiment [1] (first compound 0.08 µM) worked out at 0.612; in experiment [1] (first compound 0.253 µM), 0.53; in experiment [1] (first compound 0.8 µM), 0.524; in experiment [1] (first compound 2.53 µM) it was 0.279; in experiment [1] (first compound 8 µM), 0.111; in experiment [2] (first compound 0.08 µM), 0.977. The relative viability in experiment [2] (first compound 0.253 µM) came to 0.87; in experiment [2] (first compound 0.8 µM), 0.957; in experiment [2] (first compound 2.53 µM), 0.779; in experiment [2] (first compound 8 µM), 0.336; in experiment [3] (first compound 0.04 µM), 0.395; in experiment [3] (first compound 0.1265 µM), 0.372. Also, the relative viability was found to be 0.427 in experiment [3] (first compound 0.4 µM); 0.0925 in experiment [3] (first compound 1.265 µM); 0.0401 in experiment [3] (first compound 4 µM); 0.3 in experiment [4] (first compound 0.04 µM); 0.205 in experiment [4] (first compound 0.1265 µM); 0.332 in experiment [4] (first compound 0.4 µM). Besides, the relative viability in experiment [4] (first compound 1.265 µM) is 0.0885; in experiment [4] (first compound 4 µM) it was 0.0366.
Turning to NCI-H596, the relative viability in experiment [1] (first compound 0.08 µM) is 1.25; in experiment [1] (first compound 0.253 µM), 1.18; in experiment [1] (first compound 0.8 µM), 1.09; in experiment [1] (first compound 2.53 µM), 0.885; in experiment [1] (first compound 8 µM), 0.693; in experiment [2] (first compound 0.08 µM), 1.21. Also, the relative viability in experiment [2] (first compound 0.253 µM) turned out to be 1; in experiment [2] (first compound 0.8 µM), 1.07; in experiment [2] (first compound 2.53 µM), 0.943; in experiment [2] (first compound 8 µM), 0.886; in experiment [3] (first compound 0.04 µM), 0.815; in experiment [3] (first compound 0.1265 µM), 0.626. In addition, the relative viability was found to be 0.436 in experiment [3] (first compound 0.4 µM); 0.595 in experiment [3] (first compound 1.265 µM); 0.557 in experiment [3] (first compound 4 µM); 0.799 in experiment [4] (first compound 0.04 µM); 0.833 in experiment [4] (first compound 0.1265 µM); 0.727 in experiment [4] (first compound 0.4 µM). Further, the relative viability in experiment [4] (first compound 1.265 µM) was found to be 0.649; in experiment [4] (first compound 4 µM), 0.443.
Consider NCI-H647, for which the relative viability in experiment [1] (first compound 0.08 µM) came to 0.604; in experiment [1] (first compound 0.253 µM), 0.474; in experiment [1] (first compound 0.8 µM) it was 0.444; in experiment [1] (first compound 2.53 µM), 0.476; in experiment [1] (first compound 8 µM), 0.303; in experiment [2] (first compound 0.08 µM), 1.29. Moreover, the relative viability turned out to be 1.1 in experiment [2] (first compound 0.253 µM); 1.02 in experiment [2] (first compound 0.8 µM); 0.98 in experiment [2] (first compound 2.53 µM); 0.862 in experiment [2] (first compound 8 µM); 0.392 in experiment [3] (first compound 0.04 µM); 0.125 in experiment [3] (first compound 0.1265 µM). The relative viability in experiment [3] (first compound 0.4 µM) turned out to be 0.0492; in experiment [3] (first compound 1.265 µM) it was 0.0302; in experiment [3] (first compound 4 µM) it was 0.0464; in experiment [4] (first compound 0.04 µM), 0.576; in experiment [4] (first compound 0.1265 µM), 0.538; in experiment [4] (first compound 0.4 µM) it was 0.25. Moreover, the relative viability stood at 0.0717 in experiment [4] (first compound 1.265 µM) and 0.072 in experiment [4] (first compound 4 µM).
Regarding NCI-H650, the relative viability in experiment [1] (first compound 0.08 µM) was determined as 0.985; in experiment [1] (first compound 0.253 µM), 0.948; in experiment [1] (first compound 0.8 µM), 0.778; in experiment [1] (first compound 2.53 µM), 0.863; in experiment [1] (first compound 8 µM), 0.721; in experiment [2] (first compound 0.08 µM), 1.06. Moreover, the relative viability in experiment [2] (first compound 0.253 µM) is 0.852; in experiment [2] (first compound 0.8 µM) it was 0.876; in experiment [2] (first compound 2.53 µM), 0.976; in experiment [2] (first compound 8 µM), 0.521; in experiment [3] (first compound 0.04 µM), 0.244; in experiment [3] (first compound 0.1265 µM) it was 0.159. Further, the relative viability is 0.17 in experiment [3] (first compound 0.4 µM); 0.137 in experiment [3] (first compound 1.265 µM); 0.129 in experiment [3] (first compound 4 µM); 0.894 in experiment [4] (first compound 0.04 µM); 0.76 in experiment [4] (first compound 0.1265 µM); 0.574 in experiment [4] (first compound 0.4 µM). Further, the relative viability was 0.201 in experiment [4] (first compound 1.265 µM) and 0.176 in experiment [4] (first compound 4 µM).
Consider NCI-H727, for which the relative viability is 0.579 in experiment [1] (first compound 0.08 µM); 0.461 in experiment [1] (first compound 0.253 µM); 0.628 in experiment [1] (first compound 0.8 µM); 0.685 in experiment [1] (first compound 2.53 µM); 0.639 in experiment [1] (first compound 8 µM); 0.998 in experiment [2] (first compound 0.08 µM). The relative viability in experiment [2] (first compound 0.253 µM) amounted to 0.782; in experiment [2] (first compound 0.8 µM), 0.85; in experiment [2] (first compound 2.53 µM) it was 0.745; in experiment [2] (first compound 8 µM), 0.448; in experiment [3] (first compound 0.04 µM) it was 0.599; in experiment [3] (first compound 0.1265 µM), 0.422. In addition, the relative viability was 0.559 in experiment [3] (first compound 0.4 µM); 0.369 in experiment [3] (first compound 1.265 µM); 0.481 in experiment [3] (first compound 4 µM); 0.442 in experiment [4] (first compound 0.04 µM); 0.454 in experiment [4] (first compound 0.1265 µM); 0.403 in experiment [4] (first compound 0.4 µM). Further, the relative viability in experiment [4] (first compound 1.265 µM) amounted to 0.358; in experiment [4] (first compound 4 µM), 0.365.

(Values after the supplement of paper PMC10307832.)
